According to the supplement of paper PMC10733146:

Legend:
Assay in all cases: viability relative to DMSO control (fraction); higher = less drug effect (more viable cells)
Conditions in all cases: 48 h
[1] = tested on: primary AML patient cells (S037)
In short: (§1)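 Compounds were pre-plated at five concentrations, one well each, in 384-well plates, and primary mononuclear tumour cells were plated on them at 4 × 10^4 cells per well. The cells, fresh or cryopreserved, had been Ficoll-isolated from blood or bone marrow or taken from processed lymph node. After 48 h at 37 °C and 5% CO2 in RPMI-1640 with penicillin/streptomycin, L-glutamine and human serum, viability was read as CellTiter-Glo luminescence relative to the median of 16 inner DMSO wells.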

[2] = tested on: primary ALL patient cells (S088)
In short: as §1

[3] = tested on: primary AML patient cells (S085)
In short: as §1

[4] = tested on: primary CLL patient cells (S031)
In short: as §1

[5] = tested on: primary B-PLL patient cells (S016)
In short: as §1

[6] = tested on: primary DLBCL patient cells (S082)
In short: as §1

[7] = tested on: primary AML patient cells (S060)
In short: as §1

[8] = tested on: primary AML patient cells (S019)
In short: as §1

[9] = tested on: primary DLBCL patient cells (S076)
In short: as §1

[10] = tested on: primary T-NHL patient cells (S058)
In short: as §1

[11] = tested on: primary AML patient cells (S011)
In short: as §1

[12] = tested on: primary AML patient cells (S071)
In short: as §1

[13] = tested on: primary FL patient cells (S087)
In short: as §1

[14] = tested on: primary DLBCL patient cells (S049)
In short: as §1

[15] = tested on: primary AML patient cells (S091)
In short: as §1

[16] = tested on: primary MCL patient cells (S041)
In short: as §1

[17] = tested on: primary AML patient cells (S089)
In short: as §1

C/C=C1\NC(=O)[C@H]2CSSCC/C=C/[C@H](CC(=O)N[C@H](C(C)C)C(=O)N2)OC(=O)[C@H](C(C)C)NC1=O [Romidepsin]
viability ([1]; 0.00032 µM): 1.06
viability ([1]; 0.0016 µM): 0.911
viability ([1]; 0.008 µM): 0.554
viability ([1]; 0.04 µM): 0.516
viability ([1]; 0.2 µM): 0.508
viability ([2]; 0.00032 µM): 0.851
viability ([2]; 0.0016 µM): 0.577
viability ([2]; 0.008 µM): 0.123
viability ([2]; 0.04 µM): 0.0858
viability ([2]; 0.2 µM): 0.0855
viability ([3]; 0.00032 µM): 1.04
viability ([3]; 0.0016 µM): 0.817
viability ([3]; 0.008 µM): 0.103
viability ([3]; 0.04 µM): 0.0584
viability ([3]; 0.2 µM): 0.0681
viability ([4]; 0.00032 µM): 1.07
viability ([4]; 0.0016 µM): 0.717
viability ([4]; 0.008 µM): 0.0898
viability ([4]; 0.04 µM): 0.061
viability ([4]; 0.2 µM): 0.0838
viability ([5]; 0.00032 µM): 0.91
viability ([5]; 0.0016 µM): 0.807
viability ([5]; 0.008 µM): 0.0756
viability ([5]; 0.04 µM): 0.055
viability ([5]; 0.2 µM): 0.073
viability ([6]; 0.00032 µM): 1.02
viability ([6]; 0.0016 µM): 0.878
viability ([6]; 0.008 µM): 0.111
viability ([6]; 0.04 µM): 0.0272
viability ([6]; 0.2 µM): 0.029
viability ([7]; 0.00032 µM): 1.07
viability ([7]; 0.0016 µM): 1.05
viability ([7]; 0.008 µM): 0.464
viability ([7]; 0.04 µM): 0.0458
viability ([7]; 0.2 µM): 0.045
viability ([8]; 0.00032 µM): 1
viability ([8]; 0.0016 µM): 0.996
viability ([8]; 0.008 µM): 0.52
viability ([8]; 0.04 µM): 0.417
viability ([8]; 0.2 µM): 0.434
viability ([9]; 0.00032 µM): 1.06
viability ([9]; 0.0016 µM): 0.614
viability ([9]; 0.008 µM): 0.264
viability ([9]; 0.04 µM): 0.188
viability ([9]; 0.2 µM): 0.184
viability ([10]; 0.00032 µM): 0.992
viability ([10]; 0.0016 µM): 0.651
viability ([10]; 0.008 µM): 0.365
viability ([10]; 0.04 µM): 0.295
viability ([10]; 0.2 µM): 0.315
viability ([11]; 0.00032 µM): 0.935
viability ([11]; 0.0016 µM): 0.727
viability ([11]; 0.008 µM): 0.507
viability ([11]; 0.04 µM): 0.373
viability ([11]; 0.2 µM): 0.345
viability ([12]; 0.00032 µM): 0.887
viability ([12]; 0.0016 µM): 0.626
viability ([12]; 0.008 µM): 0.209
viability ([12]; 0.04 µM): 0.187
viability ([12]; 0.2 µM): 0.182
viability ([13]; 0.00032 µM): 0.978
viability ([13]; 0.0016 µM): 0.911
viability ([13]; 0.008 µM): 0.642
viability ([13]; 0.04 µM): 0.498
viability ([13]; 0.2 µM): 0.527
viability ([14]; 0.00032 µM): 0.886
viability ([14]; 0.0016 µM): 0.0597
viability ([14]; 0.008 µM): 0.026
viability ([14]; 0.04 µM): 0.0248
viability ([14]; 0.2 µM): 0.0226
viability ([15]; 0.00032 µM): 0.803
viability ([15]; 0.0016 µM): 0.715
viability ([15]; 0.008 µM): 0.169
viability ([15]; 0.04 µM): 0.116
viability ([15]; 0.2 µM): 0.117
viability ([16]; 0.00032 µM): 0.932
viability ([16]; 0.0016 µM): 0.817
viability ([16]; 0.008 µM): 0.222
viability ([16]; 0.04 µM): 0.175
viability ([16]; 0.2 µM): 0.194
viability ([17]; 0.00032 µM): 0.932
viability ([17]; 0.0016 µM): 0.979
viability ([17]; 0.008 µM): 0.302
viability ([17]; 0.04 µM): 0.0361
viability ([17]; 0.2 µM): 0.0536

C[C@@H](Oc1cc(-c2cnn(C3CCNCC3)c2)cnc1N)c1c(Cl)ccc(F)c1Cl [Crizotinib]
viability ([1]; 0.024 µM): 0.974
viability ([1]; 0.12 µM): 0.982
viability ([1]; 0.6 µM): 1.01
viability ([1]; 3 µM): 0.937
viability ([1]; 15 µM): 0.586
viability ([2]; 0.024 µM): 0.93
viability ([2]; 0.12 µM): 0.956
viability ([2]; 0.6 µM): 0.798
viability ([2]; 3 µM): 0.568
viability ([2]; 15 µM): 0.0811
viability ([3]; 0.024 µM): 1.04
viability ([3]; 0.12 µM): 1.02
viability ([3]; 0.6 µM): 0.822
viability ([3]; 3 µM): 0.434
viability ([3]; 15 µM): 0.18
viability ([4]; 0.024 µM): 1.1
viability ([4]; 0.12 µM): 1.08
viability ([4]; 0.6 µM): 1.12
viability ([4]; 3 µM): 0.712
viability ([4]; 15 µM): 0.194
viability ([5]; 0.024 µM): 0.971
viability ([5]; 0.12 µM): 0.944
viability ([5]; 0.6 µM): 0.874
viability ([5]; 3 µM): 0.88
viability ([5]; 15 µM): 0.255
viability ([6]; 0.024 µM): 0.975
viability ([6]; 0.12 µM): 0.989
viability ([6]; 0.6 µM): 1.01
viability ([6]; 3 µM): 0.916
viability ([6]; 15 µM): 0.36
viability ([7]; 0.024 µM): 0.926
viability ([7]; 0.12 µM): 0.931
viability ([7]; 0.6 µM): 0.931
viability ([7]; 3 µM): 0.841
viability ([7]; 15 µM): 0.445
viability ([8]; 0.024 µM): 0.982
viability ([8]; 0.12 µM): 1.11
viability ([8]; 0.6 µM): 0.911
viability ([8]; 3 µM): 0.665
viability ([8]; 15 µM): 0.298
viability ([9]; 0.024 µM): 0.938
viability ([9]; 0.12 µM): 1.03
viability ([9]; 0.6 µM): 0.999
viability ([9]; 3 µM): 0.77
viability ([9]; 15 µM): 0.17
viability ([10]; 0.024 µM): 0.908
viability ([10]; 0.12 µM): 1.01
viability ([10]; 0.6 µM): 0.903
viability ([10]; 3 µM): 0.812
viability ([10]; 15 µM): 0.335
viability ([11]; 0.024 µM): 0.996
viability ([11]; 0.12 µM): 1.04
viability ([11]; 0.6 µM): 0.822
viability ([11]; 3 µM): 0.358
viability ([11]; 15 µM): 0.0468
viability ([12]; 0.024 µM): 0.879
viability ([12]; 0.12 µM): 0.837
viability ([12]; 0.6 µM): 0.556
viability ([12]; 3 µM): 0.363
viability ([12]; 15 µM): 0.0351
viability ([13]; 0.024 µM): 0.979
viability ([13]; 0.12 µM): 1.03
viability ([13]; 0.6 µM): 0.999
viability ([13]; 3 µM): 0.821
viability ([13]; 15 µM): 0.111
viability ([14]; 0.024 µM): 1.04
viability ([14]; 0.12 µM): 1.08
viability ([14]; 0.6 µM): 1.04
viability ([14]; 3 µM): 0.98
viability ([14]; 15 µM): 0.0442
viability ([15]; 0.024 µM): 0.922
viability ([15]; 0.12 µM): 0.97
viability ([15]; 0.6 µM): 0.817
viability ([15]; 3 µM): 0.249
viability ([15]; 15 µM): 0.0707
viability ([16]; 0.024 µM): 0.97
viability ([16]; 0.12 µM): 1
viability ([16]; 0.6 µM): 0.879
viability ([16]; 3 µM): 0.79
viability ([16]; 15 µM): 0.221
viability ([17]; 0.024 µM): 0.935
viability ([17]; 0.12 µM): 0.93
viability ([17]; 0.6 µM): 0.722
viability ([17]; 3 µM): 0.359
viability ([17]; 15 µM): 0.0318
